Laboratory results: patent publication US20170009242A1, “CRISPR-Mediated Genome Engineering for Protein Depletion” (Whitehead Institute for Biomedical Research, priority 2015, published 2017)

Test system: CENP-I-AID-EGFP fusion protein
Assay: Auxin-induced depletion of endogenously tagged CENP-I-AID-EGFP, immunofluorescence microscopy
Assay type: cell-based
Settings: osTIR1-expressing DLD-1 cells, interphase cell; IAA 500 μM for 12 hr; immunofluorescence (FIG. 3)
Protocol: DLD-1 cell lines were cultured as described previously in Dulbecco's Modified Eagle Medium (DMEM) supplemented with 10% fetal bovine serum (FBS), penicillin/streptomycin and 2 mM L-glutamine. Indole-3-acetic acid (IAA) (15148; Sigma) was dissolved in water and added to cells at a concentration of 500 μM for 12 hr. osTIR1-9Myc was cloned into the pBabe-puro vector and introduced into cell lines using retroviral delivery. Stable integrants were selected in puromycin and single clones isolated using single cell sorting. Western Blot analysis using an antibody raised against the Myc tag was used to determine the expression level of TIR1 protein in different clones. Rapidly growing clones with the high levels of osTIR1 expression were selected for further use. 2.5 ug each of pX330-GFP and the donor plasmid were co-transfected into osTIR1-9Myc expressing cells using Lipofectamine 2000 (Invitrogen) and OptiMEM according to the manufacturer's instructions. 24 h after transfection cells, were transferred to a 20 cm dish, and 48 h later cells were selected in […] G418 (Gibco) and 2 ug/ml puromycin to maintain the osTIR1. Colonies were harvested after 2 weeks and FACS sorted to isolate individual cells. […]

O=C(O)Cc1c[nH]c2ccccc12 [IAA, Indole-3-acetic acid]
CENP-I-AID-EGFP fusion protein at kinetochores upon addition of IAA: no longer observed
associated proteins such as CENP-T at kinetochores upon addition of IAA: lost from kinetochores
